Reference: ChEMBL document CHEMBL1201862, “PubChem BioAssay data set” (2004)
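Five compound concentrations were applied to cells in 96-well plates for 48 hours; endpoints were derived by simple linear interpolation of the resulting dose-response curve. GI50 marks 50% less growth.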 The source made the active and inactive calls. Rule as the data show it: active = GI50 up to about 1.1 µM and inactive = higher.

Tests used:
Assay in all cases: growth of human tumour cells (NCI), 48 h
HL-60 = system: HL-60
RXF 393 = system: RXF 393
SK-OV-3 = system: SK-OV-3
SK-MEL-2 = system: SK-MEL-2
UO-31 = system: UO-31
NCI-H23 = system: NCI-H23
OVCAR-8 = system: OVCAR-8
EKVX = system: EKVX
SN12C = system: SN12C
K562 = system: K562
UACC-257 = system: UACC-257
RPMI-8226 = system: RPMI-8226
NCI-H226 = system: NCI-H226
SF-539 = system: SF-539
U-251 = system: U-251
HT-29 = system: HT-29
HCT-116 = system: HCT-116

Measured: GI50

COc1cc(/C=C/C(=O)c2sc(-n3nc(-c4ccccc4)cc3-c3ccccc3)nc2C)ccc1O
inactive: HL-60 49.9 µM | RXF 393 13 µM | SK-OV-3 > 100 µM | SK-MEL-2 > 100 µM | UO-31 > 100 µM | NCI-H23 > 100 µM | OVCAR-8 > 100 µM | EKVX 4.7 µM | SN12C > 100 µM | K562 32.7 µM | UACC-257 > 100 µM | RPMI-8226 > 100 µM | NCI-H226 > 100 µM | SF-539 > 100 µM | U-251 > 100 µM

OC(c1ccccc1)(c1ccccc1)c1ccccn1
inactive: HL-60 71.3 µM | RXF 393 > 100 µM | SK-OV-3 > 100 µM | SK-MEL-2 > 100 µM | UO-31 > 100 µM | NCI-H23 83 µM | OVCAR-8 > 100 µM | HT-29 > 100 µM | EKVX > 100 µM | SN12C > 100 µM | K562 > 100 µM | UACC-257 > 100 µM | RPMI-8226 95.5 µM | NCI-H226 > 100 µM | SF-539 > 100 µM | U-251 > 100 µM | HCT-116 > 100 µM

N#CC1(C#N)C2C=CC(c3coc4cccc2c34)C1(C#N)C#N (stereo not drawn)
inactive: HL-60 1.45 µM | RXF 393 3.91 µM | SK-OV-3 17.7 µM | SK-MEL-2 31.7 µM | UO-31 12.8 µM | NCI-H23 18.7 µM | OVCAR-8 3.47 µM | HT-29 18.9 µM | EKVX 15.5 µM | SN12C 11 µM | K562 2.27 µM | UACC-257 10.8 µM | RPMI-8226 4.86 µM | NCI-H226 19 µM | SF-539 20.2 µM | U-251 19.5 µM | HCT-116 2.49 µM

COc1cc(CC(=O)c2cc3c(cc2-c2ccccc2)OCO3)cc(OC)c1OC
inactive: HL-60 11.1 µM | RXF 393 30.2 µM | SK-OV-3 49.3 µM | SK-MEL-2 44.2 µM | UO-31 19.5 µM | NCI-H23 22.9 µM | OVCAR-8 58.7 µM | HT-29 > 100 µM | EKVX 10.8 µM | SN12C 68.7 µM | K562 15.8 µM | UACC-257 23.4 µM | NCI-H226 14 µM | SF-539 17.5 µM | U-251 71.6 µM | HCT-116 43.9 µM

CC1=C(C)C(=O)c2c(cc3c4ccccc4ccn23)C1=O
inactive: RXF 393 > 100 µM | SK-OV-3 > 100 µM | SK-MEL-2 > 100 µM | UO-31 > 100 µM | NCI-H23 > 100 µM | OVCAR-8 > 100 µM | HT-29 > 100 µM | EKVX > 100 µM | SN12C > 100 µM | K562 > 100 µM | UACC-257 > 100 µM | RPMI-8226 > 100 µM | NCI-H226 > 100 µM | SF-539 > 100 µM | U-251 > 100 µM | HCT-116 > 10 µM

C/C=C1\Oc2ccc(OC)cc2S1(=O)=O
inactive: HL-60 > 100 µM | RXF 393 > 100 µM | SK-OV-3 > 100 µM | SK-MEL-2 > 100 µM | UO-31 > 100 µM | NCI-H23 > 100 µM | OVCAR-8 > 100 µM | HT-29 > 100 µM | EKVX > 100 µM | SN12C > 100 µM | K562 > 100 µM | UACC-257 > 100 µM | RPMI-8226 > 100 µM | NCI-H226 > 100 µM | U-251 > 100 µM | HCT-116 > 100 µM

CCOC(=O)c1cc2c3c(c(O)c(OC)c2s1)N(C(=O)c1cc2c4c(c(O)c(OC)c2s1)N(C(C)=O)CC4)CC3
inactive: HL-60 28.2 µM | RXF 393 54.1 µM | SK-OV-3 22 µM | UO-31 64.4 µM | NCI-H23 > 100 µM | OVCAR-8 72.8 µM | HT-29 > 100 µM | EKVX > 100 µM | SN12C > 100 µM | K562 > 100 µM | UACC-257 > 100 µM | RPMI-8226 > 100 µM | NCI-H226 50.4 µM | SF-539 38.5 µM | U-251 63.8 µM | HCT-116 > 100 µM

CCCCCCCCCCCCCCCC(=O)OCC1OC(N2C(=O)/C(=N\NC(N)=S)c3ccc([N+](=O)[O-])cc32)C(OC(C)=O)C1OC(C)=O (stereo not drawn)
inactive: HL-60 > 100 µM | RXF 393 > 100 µM | SK-OV-3 48.4 µM | SK-MEL-2 > 100 µM | NCI-H23 > 100 µM | OVCAR-8 52.1 µM | HT-29 > 100 µM | EKVX 39.4 µM | SN12C > 100 µM | K562 > 100 µM | UACC-257 > 100 µM | RPMI-8226 > 100 µM | NCI-H226 > 100 µM | SF-539 > 100 µM | U-251 78 µM | HCT-116 29 µM

CC(C)CC1CC2C(=O)N(c3ccccc3)C(=O)C2c2[nH]c3ccccc3c21 (stereo not drawn)
inactive: HL-60 15.3 µM | RXF 393 14.6 µM | SK-OV-3 21.4 µM | SK-MEL-2 25.6 µM | UO-31 26.4 µM | NCI-H23 > 45.1 µM | OVCAR-8 14.9 µM | HT-29 51.9 µM | EKVX > 52.2 µM | SN12C 13.9 µM | K562 6.1 µM | UACC-257 26.5 µM | RPMI-8226 29.2 µM | NCI-H226 24.5 µM | SF-539 23.2 µM | U-251 25 µM | HCT-116 11.4 µM

C=C(CN(CC(=C)C(=O)c1ccccc1)C(C)(C)C)C(=O)c1ccccc1
inactive: HL-60 2.53 µM | RXF 393 5.36 µM | SK-OV-3 18.4 µM | SK-MEL-2 18.2 µM | UO-31 11.7 µM | NCI-H23 16.4 µM | OVCAR-8 20.5 µM | HT-29 18.1 µM | EKVX 18.9 µM | SN12C 16.3 µM | K562 3.01 µM | UACC-257 17 µM | RPMI-8226 4.38 µM | NCI-H226 24 µM | SF-539 16.8 µM | U-251 20.5 µM | HCT-116 13.8 µM

COC1CCC(=C2C(=O)OC(C)(C)OC2=O)N1 (stereo not drawn)
inactive: HL-60 > 100 µM | RXF 393 > 100 µM | SK-OV-3 > 100 µM | SK-MEL-2 > 100 µM | UO-31 > 100 µM | NCI-H23 > 100 µM | OVCAR-8 > 100 µM | HT-29 > 100 µM | EKVX > 100 µM | SN12C > 100 µM | K562 > 100 µM | UACC-257 > 100 µM | RPMI-8226 > 100 µM | NCI-H226 > 100 µM | SF-539 > 100 µM | U-251 > 100 µM | HCT-116 > 100 µM

CCN(CC)c1ccc(Cl)c2c1C(O)(C(C)C)C2(C)C (stereo not drawn)
inactive: HL-60 15.6 µM | RXF 393 16 µM | SK-OV-3 15.6 µM | SK-MEL-2 14.1 µM | UO-31 17.3 µM | NCI-H23 15 µM | OVCAR-8 18.9 µM | HT-29 11.8 µM | SN12C 16.7 µM | K562 19 µM | UACC-257 14.5 µM | RPMI-8226 13.2 µM | NCI-H226 16.5 µM | SF-539 19.8 µM | U-251 16.8 µM | HCT-116 14.1 µM

Nc1nc2c3nc(Nc4ccccc4)sc3nc(=S)n2c2sc(Nc3ccccc3)nc12
inactive: HL-60 > 100 µM | RXF 393 > 100 µM | SK-OV-3 > 100 µM | UO-31 > 100 µM | NCI-H23 > 100 µM | OVCAR-8 15.2 µM | HT-29 > 100 µM | EKVX > 100 µM | SN12C 65.5 µM | K562 > 100 µM | UACC-257 > 100 µM | NCI-H226 > 100 µM | SF-539 > 100 µM | U-251 15.5 µM | HCT-116 > 100 µM

COc1cc(OC)c2c(=O)c3cccc([N+](=O)[O-])c3n(C)c2c1
inactive: HL-60 31.3 µM | RXF 393 > 100 µM | SK-OV-3 > 100 µM | SK-MEL-2 > 100 µM | UO-31 > 100 µM | NCI-H23 77.8 µM | OVCAR-8 > 100 µM | HT-29 > 100 µM | EKVX > 100 µM | SN12C 95.3 µM | K562 > 100 µM | UACC-257 87.9 µM | RPMI-8226 > 100 µM | SF-539 74 µM | U-251 > 100 µM

CCCCC(C(=O)C(=O)Nc1ccccc1CC)C(=O)C(C)C (stereo not drawn)
inactive: HL-60 > 100 µM | SK-OV-3 > 100 µM | SK-MEL-2 > 100 µM | UO-31 > 100 µM | NCI-H23 > 100 µM | OVCAR-8 > 100 µM | HT-29 > 100 µM | EKVX > 100 µM | SN12C > 100 µM | K562 > 100 µM | UACC-257 > 100 µM | RPMI-8226 > 100 µM | NCI-H226 > 100 µM | SF-539 > 100 µM | U-251 > 100 µM | HCT-116 > 100 µM

Cc1ccc2c(c1)-c1c3c(nn1C)-c1ccccc1SC3O2 (stereo not drawn)
inactive: HL-60 24.5 µM | RXF 393 > 100 µM | SK-OV-3 > 100 µM | SK-MEL-2 64.9 µM | UO-31 20.8 µM | NCI-H23 > 100 µM | OVCAR-8 39.6 µM | HT-29 41.6 µM | EKVX 44.5 µM | K562 35.1 µM | UACC-257 50.6 µM | RPMI-8226 21.8 µM | SF-539 > 100 µM | U-251 > 100 µM | HCT-116 33.7 µM

CC/C(=C(\c1ccccc1)c1ccc(OCC[N+](C)(C)C)cc1)c1ccccc1 [TAMOXIFEN METHYL IODIDE]
inactive: HL-60 2.52 µM | RXF 393 17.1 µM | SK-OV-3 17.5 µM | SK-MEL-2 13.8 µM | UO-31 21.1 µM | OVCAR-8 15.3 µM | HT-29 14.6 µM | EKVX 15.6 µM | SN12C 9.16 µM | K562 5.65 µM | UACC-257 6.75 µM | RPMI-8226 9.29 µM | NCI-H226 10.2 µM | SF-539 21.6 µM | U-251 13.4 µM | HCT-116 17.5 µM
